From patent US9145399B2, “Substituted bicyclic triazole derivatives as gamma secretase modulators” (Janssen Pharmaceuticals, Inc., priority 2010, dated 2015) come the findings set out here.

One may read the IC50 as the concentration that inhibits the measured activity by half. Higher therefore signals weaker potency in that assay. Usually melting point stands for the temperature of the solid-liquid transition.

Where only a bound is given, the exact number is not on record here.

Series [1] concerns Aβtotal. The series is described as follows: In vivo efficacy: Aβtotal in brain of non-transgenic mice after single oral dose (ELISA). As to conditions: dose 30 mg/kg oral dosing, soluble brain fraction, animals sacrificed after 4 h, untreated animals (Ctrl) set at 100; for response vs control in vivo at 30 mg/kg: Mus musculus, read-out: Aβtotal (% vs Ctrl)_Mean. Also noted: species or system mouse. An excerpt: (§1) To determine whether acute administration of an Aβ42 lowering agent would reduce Aβ42 levels in vivo, non-transgenic rodents, e.g. mice or rats were used. Animals treated with the Aβ42 lowering agent were examined and compared to those untreated or treated with vehicle and brain levels of soluble Aβ42 and total Aβ were quantitated by standard techniques, for example, using ELISA. Treatment periods varied from hours (h) to days and were adjusted based on the results of the Aβ42 lowering once a time course of onset of effect could be established.
(§2) A typical protocol for measuring Aβ42 lowering in vivo is shown but it is only one of many variations that could be used to optimize the levels of detectable Aβ. For example, Aβ42 lowering compounds were formulated in 20% of Captisol® (a sulfobutyl ether of β-cyclodextrin) in water or 20% hydroxypropyl β cyclodextrin. The Aβ42 lowering agents were administered as a single oral dose or by any acceptable route of administration to overnight fasted animals. After 4 h, the animals were sacrificed and Aβ42 levels were analysed.
(§3) Blood was collected by decapitation and exsanguinations in EDTA-treated collection tubes. Blood was centrifuged at 1900 g for 10 minutes (min) at 4° C. and the plasma recovered and flash frozen for later analysis. The brain was removed from the cranium and hindbrain. The cerebellum was removed and the left and right hemisphere were separated. The left hemisphere was stored at −18° C. for quantitative analysis of test compound levels. The right hemisphere was rinsed with phosphate-buffered saline (PBS) buffer and immediately frozen on dry ice and stored at −80° C. until homogenization for biochemical assays.
(§4) Mouse brains from non-transgenic animals were resuspended in 8 volumes of 0.4% DEA (diethylamine)/50 mM NaCl containing protease inhibitors (Roche-11873580001 or 04693159001) per gram of tissue, e.g. for 0.158 g brain, add 1.264 ml of 0.4% DEA. All samples were homogenized in the FastPrep-24 system (MP Biomedicals) using lysing matrix D (MPBio #6913-100) at 6 m/s for 20 seconds. Homogenates were centrifuged at 221.300×g for 50 min. The resulting high speed supernatants were then transferred to fresh eppendorf tubes. Nine parts of supernatant were neutralized with 1 part 0.5 M Tris-HCl pH 6.8 and used to quantify Aβtotal and Aβ42.
(§5) To quantify the amount of Aβtotal and Aβ42 in the soluble fraction of the brain homogenates, Enzyme-Linked-Immunosorbent-Assays were used. Briefly, the standards (a dilution of synthetic Aβ1-40 and Aβ1-42, Bachem) were prepared in 1.5 ml Eppendorf tube in Ultraculture, with final concentrations ranging from 10000 to 0.3 pg/ml. The samples and standards were co-incubated with HRPO-labelled N-terminal antibody for Aβ42 detection and with the biotinylated mid-domain antibody 4G8 for Aβtotal detection. 50 μl of conjugate/sample or conjugate/standards mixtures were then added to the antibody-coated plate (the capture antibodies selectively recognize the C-terminal end of Aβ42, antibody JRF/cAβ42/26, for Aβ42 detection and the N-terminus of Aβ, antibody JRF/rAβ/2, for Aβtotal detection). The plate was allowed to incubate overnight at 4° C. in order to allow formation of the antibody-amyloid complex. Following this incubation and subsequent wash steps the ELISA for Aβ42 quantification was finished by addition of Quanta Blu fluorogenic peroxidase substrate according to the manufacturer's instructions (Pierce Corp., Rockford, Il). A reading was performed after 10 to 15 min (excitation 320 nm/emission 420 nm).
For Aβtotal detection, a Streptavidine-Peroxidase-Conjugate was added, followed 60 min later by an additional wash step and addition of Quanta Blu fluorogenic peroxidase substrate according to the manufacturer's instructions (Pierce Corp., Rockford, Ill). A reading was performed after 10 to 15 min (excitation 320 nm/emission 420 nm). […]
Background: An ELISA detects its analyte on a solid surface through an enzyme-linked reagent.

In series [2] the test system is Aβtotal. The experiment in a line: Screening for γ-secretase-modulating activity in SKNBE2 cells carrying APP 695 wild type: Aβtotal in cell supernatant (Alphalisa). It counts as cell-based. As to conditions: overnight incubation. An outline of the steps:
(§6)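 SKNBE2 cells expressing wild-type APP695 were incubated overnight at 37° C with test compound at several concentrations. Aβ42 and Aβtotal in supernatant were measured by AlphaLISA sandwich immunoassays. IC50 came from 4-parameter non-linear fits of percent of compound-free control versus log concentration.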
(In general: Alpha assays give light when donor and acceptor beads are brought close together.)

The test system of series [3] is Aβ42. The series is described as follows: Screening for γ-secretase-modulating activity in SKNBE2 cells carrying APP 695 wild type: Aβ42 in cell supernatant (Alphalisa). It counts as cell-based. To be noted: overnight incubation. An outline of the steps:
as §6

Series [4] relates to Aβ42. The series is described as follows: In vivo efficacy: Aβ42 lowering in brain of non-transgenic mice after single oral dose (ELISA). Also noted: species or system mouse. As to conditions: dose 30 mg/kg oral dosing, soluble brain fraction, animals sacrificed after 4 h, untreated animals (Ctrl) set at 100; for response vs control in vivo at 30 mg/kg: Mus musculus, read-out: Aβ42 (% vs Ctrl) _Mean.
From the text: as §1, §2, §3, §4, §5
In this model at least 20% Aβ42 lowering compared to untreated animals would be advantageous.
The results are shown in Table 4 (dose 30 mg/kg oral dosing) (value for untreated animals as control (Ctrl) was set at 100): […]

Setting [5] is: Homo sapiens, SKNBE2, SKNBE2 cells carrying APP 695 wild type.

Consider `Cc1cc(-c2ccc(Nc3nc4n(n3)CCCC4c3ccccc3C(F)(F)F)cc2)ccn1` (centres unmarked) [Compound 42, 5,6,7,8-tetrahydro-N-[4-(2-methyl-4-pyridinyl)phenyl]-8-[2-(trifluoromethyl)phenyl]-[1,2,4]triazolo[1,5-a]pyridin-2-amine], for which the response vs control in vivo at 30 mg/kg was 83% in the series on Aβtotal [1] and 58% in the series with Aβ42 [4]. The IC50 was above 10000 nM in the series on Aβtotal [2] (Homo sapiens) and 23 nM in the series with Aβ42 [3] (setting [5]).

For `COc1cc(Nc2nc3n(n2)CCOC3c2ccccc2C(F)(F)F)ccc1-c1ccnc(C)c1` (centres unmarked) [Compound 65, 5,6-dihydro-N-[3-methoxy-4-(2-methyl-4-pyridinyl)phenyl]-8-[2-(trifluoromethyl)phenyl]-8H-[1,2,4]triazolo[5,1-c][1,4]oxazin-2-amine], the results for the response vs control in vivo at 30 mg/kg in the series on Aβtotal [1] and in the series on Aβ42 [4] were 101% and 64%, respectively. For the same molecule, the IC50 with Aβtotal [2] (Homo sapiens) is above 10000 nM; in the series on Aβ42 [3] (setting [5]) it was 52 nM.

Molecule `COc1cc(Nc2nc3n(n2)CCOC3c2ccccc2Cl)ccc1-c1ccnc(C)c1` (centres unmarked) [Compound 87, 8-(2-chlorophenyl)-5,6-dihydro-N-[3-methoxy-4-(2-methyl-4-pyridinyl)phenyl]-8H-[1,2,4]triazolo[5,1-c][1,4]oxazin-2-amine] displayed a melting point of 181.3 °C. The response vs control in vivo at 30 mg/kg with Aβtotal [1] was 89%. For the same molecule, in the series on Aβtotal [2] (Homo sapiens), the IC50 was above 10000 nM. In the series with Aβ42 [3] (setting [5]), this molecule showed an IC50 of 35 nM. Besides, the response vs control in vivo at 30 mg/kg with Aβ42 [4] is 48%.

Consider `COc1cc(Nc2nc3n(n2)CCC[C@H]3c2ccccc2Cl)ccc1-n1cnc(C)c1` [Compound 29, (8S)-8-(2-chlorophenyl)-5,6,7,8-tetrahydro-N-[3-methoxy-4-(4-methyl-1H-imidazol-1-yl)phenyl]-[1,2,4]triazolo[1,5-a]pyridin-2-amine], for which the melting point was 193.2 °C. Further, in the series on Aβtotal [1], the response vs control in vivo at 30 mg/kg was 98%. This molecule had an IC50 with Aβtotal [2] (Homo sapiens) above 10000 nM. In the series on Aβ42 [3] (setting [5]), the IC50 amounted to 25 nM. Further, in the series with Aβ42 [4], the response vs control in vivo at 30 mg/kg was 99%.

In the case of `Cc1cc(-c2ccc(Nc3nc4n(n3)CCCC4c3ccc(F)cc3F)cc2)ccn1` (centres unmarked) [Compound 81, 8-(2,4-difluorophenyl)-5,6,7,8-tetrahydro-N-[4-(2-methyl-4-pyridinyl)phenyl]-[1,2,4]triazolo[1,5-a]pyridin-2-amine], the melting point was 193.7 °C. The response vs control in vivo at 30 mg/kg in the series with Aβtotal [1] was 84%. The molecule further had an IC50 with Aβtotal [2] (Homo sapiens) above 10000 nM. Inhibition in the series with Aβ42 [3] (setting [5]) was half-maximal at 69 nM (IC50). The response vs control in vivo at 30 mg/kg in the series on Aβ42 [4] amounted to 41%.

`COc1cc(Nc2nc3n(n2)CCCC3c2ccccc2C(F)(F)F)ccc1-n1cnc(C)c1` (centres unmarked) [Compound 31, 5,6,7,8-tetrahydro-N-[3-methoxy-4-(4-methyl-1H-imidazol-1-yl)phenyl]-8-[2-(trifluoromethyl)phenyl]-[1,2,4]triazolo[1,5-a]pyridin-2-amine] had a melting point of 187.9 °C. Also, the response vs control in vivo at 30 mg/kg with Aβtotal [1] was determined as 96%. The same molecule gave a concentration for half-maximal inhibition (IC50) in the series with Aβtotal [2] (Homo sapiens) of 5750 nM. In the series with Aβ42 [3] (setting [5]), this molecule gave an IC50 of 13 nM. Also, in the series with Aβ42 [4], the response vs control in vivo at 30 mg/kg came to 83%.

Consider `COc1cc(Nc2nc3n(n2)CCN(C)C3c2ccccc2C(F)(F)F)ccc1-n1cnc(C)c1` (centres unmarked) [Compound 13, 5,6,7,8-tetrahydro-N-[3-methoxy-4-(4-methyl-1H-imidazol-1-yl)phenyl]-7-methyl-8-[2-(trifluoromethyl)phenyl]-[1,2,4]triazolo[1,5-a]pyrazin-2-amine], for which the results for the response vs control in vivo at 30 mg/kg in the series on Aβtotal [1] and in the series on Aβ42 [4] were 100% and 93%, respectively. Also, the figures for the IC50 with Aβtotal [2] (Homo sapiens) and in the series with Aβ42 [3] (setting [5]) were 7760 nM and 9 nM, respectively.

`COc1cc(Nc2nc3n(n2)CCN(C(C)=O)C3c2ccccc2C(F)(F)F)ccc1-n1cnc(C)c1` (centres unmarked) [Compound 14, 7-acetyl-5,6,7,8-tetrahydro-N-[3-methoxy-4-(4-methyl-1H-imidazol-1-yl)phenyl]-8-[2-(trifluoromethyl)phenyl]-[1,2,4]triazolo[1,5-a]pyrazin-2-amine]: the results for the response vs control in vivo at 30 mg/kg in the series on Aβtotal [1] and in the series on Aβ42 [4] were 119% and 101%, respectively. For the same molecule, the values for the IC50 in the series with Aβtotal [2] (Homo sapiens) and in the series on Aβ42 [3] (setting [5]) were above 10000 nM and 66 nM, respectively.

On to `COc1ccc(C2CCCn3nc(Nc4ccc(-c5ccnc(C)c5)cc4)nc32)cc1F.Cl.O` (centres unmarked) [Compound 105, 8-(3-fluoro-4-methoxyphenyl)-5,6,7,8-tetrahydro-N-[4-(2-methyl-4-pyridinyl)phenyl]-[1,2,4]triazolo[1,5-a]pyridin-2-amine.1.6HCl.2.4H2O], for which the “Aβtotal (% vs Ctrl)_Mean” value in the series on Aβtotal [1] came out at 99 % vs Ctrl. Further, the results for the IC50 with Aβtotal [2] and in the series with Aβ42 [3] (SKNBE2 cells carrying APP 695 wild type) were above 10000 nM and 56 nM, respectively. Moreover, the “Aβ42 (% vs Ctrl) _Mean” value in the series with Aβ42 [4] is listed as 51 % vs Ctrl.

Consider `COc1cc(Nc2nc3n(n2)CCCC3c2ccccc2C(F)(F)F)ccc1-c1ccnc(C)c1` (centres unmarked) [Compound 43, 5,6,7,8-tetrahydro-N-[3-methoxy-4-(2-methyl-4-pyridinyl)phenyl]-8-[2-(trifluoromethyl)phenyl]-[1,2,4]triazolo[1,5-a]pyridin-2-amine], for which the response vs control in vivo at 30 mg/kg in the series on Aβtotal [1] was 87%; with Aβ42 [4], 71%. Moreover, the half-maximal inhibitory concentration (IC50) in the series with Aβtotal [2] (Homo sapiens) came to 7080 nM; in the series on Aβ42 [3] (setting [5]), 16 nM.

Consider `COc1cc(Nc2nc3n(n2)CCCC3c2ccccc2Cl)ccc1-c1ccnc(C)c1` (racemic) [Compound 66, 8-(2-chlorophenyl)-5,6,7,8-tetrahydro-N-[3-methoxy-4-(2-methyl-4-pyridinyl)phenyl]-[1,2,4]triazolo[1,5-a]pyridin-2-amine], for which the response vs control in vivo at 30 mg/kg worked out at 92% in the series on Aβtotal [1] and 54% in the series with Aβ42 [4]. Also, the IC50 in the series on Aβtotal [2] (Homo sapiens) came to 9120 nM; in the series with Aβ42 [3] (setting [5]) it was 35 nM.

With `FC(F)(F)c1ccccc1C1CCCn2nc(Nc3ccc(-c4cccnc4)cc3)nc21` (centres unmarked) [Compound 46, 5,6,7,8-tetrahydro-N-[4-(3-pyridinyl)phenyl]-8-[2-(trifluoromethyl)phenyl]-[1,2,4]triazolo[1,5-a]pyridin-2-amine], the response vs control in vivo at 30 mg/kg was 98% in the series with Aβtotal [1] and 61% with Aβ42 [4]. The results for the IC50 with Aβtotal [2] (Homo sapiens) and with Aβ42 [3] (setting [5]) were above 10000 nM and 5250 nM, respectively.

On to `COc1cc(Nc2nc3n(n2)C(c2ccccc2C(F)(F)F)CCC3)ccc1-c1ccnc(C)c1` (centres unmarked) [Compound 52, 5,6,7,8-tetrahydro-N-[3-methoxy-4-(2-methyl-4-pyridinyl)phenyl]-5-[2-(trifluoromethyl)phenyl]-[1,2,4]triazolo[1,5-a]pyridin-2-amine 1.8 HCl3H2O], for which the response vs control in vivo at 30 mg/kg amounted to 112% with Aβtotal [1] and 45% in the series on Aβ42 [4]. Further, the IC50 was at least 10000 nM with Aβtotal [2] (Homo sapiens) and 182 nM in the series on Aβ42 [3] (setting [5]).
